Reference: US8664384B2, “N6-(ferrocenmethyl)quinazolin-2,4,6-triamina (H2) and the derivatives and prodrugs thereof as antileishmanial, antiprotozoal, antiparasitic and antimicrobial agents” (priority 2010, dated 2014)
Where two headings read alike, the source gives them in different places.

Columns and labels:
[1] = test system: Leishmania mexicana MNYC/BZ/62/M379 reference strain; assay type: cell-based
Protocol: FIG. 3: A plot showing the H2 prodrug activity toward the in vitro growth of Leishmania Mexicana. To obtain a higher sensitivity in this experiment, the MNYC/BZ/62/M379 reference strain, which has a higher sensitivity to H2 than does MHOM/MX/01/Tab3, was used. The number of parasites/ml was determined at 72 hours of incubation using 100 mM of each compound in four replicates. The culture conditions were the same as described in FIG. 1.
The following is a list of Leishmania mexicana growth inhibition activity by the prodrugs compared to H2 and a control.

[2] = test system: Leishmania mexicana strain MHOM/MX/01/Tab3; assay: in vitro growth of Leishmania mexicana, parasite count in Neubauer chamber; assay type: cell-based
Protocol: FIG. 1: The biological activity of H2 toward the in vitro growth of Leishmania mexicana strain MHOM/MX/01/Tab3. A growth curve collected after 72 hours of parasite cultivation in a Neubauer chamber in the presence of the H2 is shown. The H2 concentration is shown on the horizontal axis, whereas the number of parasites/ml is shown on the vertical axis. The experiment was performed at room temperature using high-glucose Dulbecco's Modified Eagle's Medium with 10% fetal bovine serum.
FIG. 2: Photograph obtained using an inverted microscope showing the inhibition of Leishmania growth by H2. The parasite culture shown in the left image was grown under the same conditions described in FIG. 1 but with the absence of H2.
At greater than 5 μg/ml, H2 is lethal to Leishmania in less than 5 hours. The in vitro effect is apparent at 30 minutes after application. The parasite structure is modified such that it loses its characteristic form, loses refringence, becomes spherical, and is incapable of multiplying. H2 has a CL50 of 2.6 μm/ml for the Leishmania mexicana MHOM/MX/01/Tab3 strain. The mechanism of cellular damage could not be identified by means of annexin for concentrations greater than 10 μg/ml; it is thought that a necrosis process rather than apoptosis is likely involved.

[3] = test system: Leishmania mexicana cultures (Tab3 or M379 strain); assay: elimination of parasites in Leishmania mexicana cultures; assay type: cell-based; settings: 3 μg/ml; 10^6 parasites/ml; Dulbecco's medium with 4.5 mg/mL glucose and 10% fetal bovine serum
Protocol: H2 (3 μg/ml) eliminates more than 90% of the parasites in Leishmania mexicana cultures (Tab3 or M379 strain) with 10^6 parasites/ml in Dulbecco's medium modified with 4.5 mg/mL glucose and 10% fetal bovine serum.

murine cells = assay: in vitro cytotoxicity against murine cells; assay type: cell-based; settings: in vitro studies
Description: (§1) Cytotoxicity against murine cells was not found in in vitro studies or in vivo studies using oral, parenteral, or dermal administration in mice.

[4] = test system: microorganisms, parasites, and protozoa, including members of the Leishmania genus; assay: antimicrobial, antiparasitic and leishmanicide activity (general statement); assay type: cell-based; settings: from 0.1 μg/ml to greater than 100 μg/ml
Protocol: The N^6-(ferrocenmethyl)quinazoline-2,4,6-triamine compound, which we refer to as H2, presents antimicrobial, antiparasitic, and leishmanicide activity from 0.1 μg/ml to greater than 100 μg/ml. H2 can be used in the treatment of infections caused by microorganisms, parasites, and protozoa, including members of the Leishmania genus in particular.

mice = assay: in vivo toxicity studies in mice; settings: oral, parenteral, or dermal administration in mice
Description: as §1

Compound	% of Leishmania Growth Inhibition ([1]; 72 hours of incubation, 100 mM of each compound, four replicates, M379 strain (FIG. 3)) [%]	effect on parasite culture (inverted microscope, FIG. 2) ([2]; 1 μg/ml H2, conditions of FIG. 1)	time until lethal to Leishmania ([2]; H2 at greater than 5 μg/ml)	CL50 ([2]; Leishmania mexicana MHOM/MX/01/Tab3 strain) [μm/ml]	speed of killing the total amount of parasites compared to meglumine antimoniate, metronidazole or hydroxyurea ([2]; faster than previously described compounds, at doses ten-fold lower or less)	time at which the in vitro effect is apparent after application ([2]; in vitro) [min]	parasites eliminated [3]	cytotoxicity against murine cells (murine cells)	concentration at which antimicrobial, antiparasitic, and leishmanicide activity is presented [4] [µg/mL]	cytotoxicity in vivo (mice)	% of Leishmania Growth Inhibition [1] [%]
N^6-(ferrocenmethyl)quinazoline-2,4,6-triamine [Compound H2]	100	clear lack of growth and destruction of the parasite	less than 5 hours	2.6	up to 10 fold	30	more than 90%	not found	≥ 0.1	not found	
[Fe+2].c1cc[cH-]c1.c1ccc(NC[c-]2cccc2)cc1 [FBC, N-(ferrocenmethyl)aniline, reference compound]											32
